In ChEMBL document CHEMBL5678816, “A Next-Generation TRK Kinase Inhibitor Overcomes Acquired Resistance to Prior TRK Kinase Inhibition in Patients with TRK Fusion-Positive Solid Tumors” (Cancer Discov, 2017):
Activity calls are given as the source filed them. No cut-off for these calls is given here.

What was measured:
[1] = Inhibition of N-terminal 6His-tagged TRKC G696A mutant (506 to 829 residues) (unknown origin) expressed in Escherichia coli incubated for 60 mins by [gamma-33P]-ATP based TopCount NXT liquid scintillation assay; parameters: species or system Homo sapiens
NIH3T3 = type: functional, organism-based; conditions: Mus musculus, dose 30-300 mg/kg, route po, time 9.0 day
5637 = test: Inhibition of cell proliferation in human 5637 cells upto 10 umol/L incubated for 72 hrs by DAPI staining based analysis; type: functional; conditions: dose <= 10.0 µmol/L
A101D = test: Inhibition of cell proliferation in human A101D cells upto 10 umol/L incubated for 72 hrs by DAPI staining based analysis; type: functional; conditions: dose <= 10.0 µmol/L
SNB-19 = test: Inhibition of cell proliferation in human SNB-19 cells upto 10 umol/L incubated for 72 hrs by DAPI staining based analysis; type: functional; conditions: dose <= 10.0 µmol/L
SAOS-2 = test: Inhibition of cell proliferation in human SAOS-2 cells upto 10 umol/L incubated for 72 hrs by DAPI staining based analysis; type: functional; conditions: dose <= 10.0 µmol/L
TT = test: Inhibition of cell proliferation in human TT cells upto 10 umol/L incubated for 72 hrs by DAPI staining based analysis; type: functional; conditions: dose <= 10.0 µmol/L
[2] = molecular target: Focal adhesion kinase 1 (Homo sapiens) (UniProt Q05397); test: Inhibition of FAK (unknown origin) at 1 uM in presence of ATP relative to control; values are per cent of control
[3] = molecular target: Macrophage colony-stimulating factor 1 receptor (Homo sapiens) (UniProt P07333); test: Inhibition of Fms (unknown origin) at 1 uM in presence of ATP relative to control; values are per cent of control
[4] = molecular target: Proto-oncogene tyrosine-protein kinase receptor Ret (Homo sapiens) (UniProt P07949); test: Inhibition of Ret (unknown origin) at 1 uM in presence of ATP relative to control; values are per cent of control
[5] = molecular target: Tyrosine-protein kinase receptor TYRO3 (Homo sapiens) (UniProt Q06418); test: Inhibition of Rse (unknown origin) at 1 uM in presence of ATP relative to control; values are per cent of control
[6] = molecular target: Serine/threonine-protein kinase VRK2 (Homo sapiens) (UniProt Q86Y07); test: Inhibition of VRK2 (unknown origin) at 1 uM in presence of ATP relative to control; values are per cent of control
[7] = molecular target: Serine/threonine-protein kinase Nek2 (Homo sapiens) (UniProt P51955); test: Inhibition of NEK2 (unknown origin) at 1 uM in presence of ATP relative to control; values are per cent of control
[8] = molecular target: Misshapen-like kinase 1 (Homo sapiens) (UniProt Q8N4C8); test: Inhibition of MINK (unknown origin) at 1 uM in presence of ATP relative to control; values are per cent of control
[9] = molecular target: Receptor-type tyrosine-protein kinase FLT3 (Homo sapiens) (UniProt P36888); test: Inhibition of FLt3 (unknown origin) at 1 uM in presence of ATP relative to control; values are per cent of control
[10] = molecular target: BDNF/NT-3 growth factors receptor (Homo sapiens) (UniProt Q16620); test: Inhibition of TrkB (unknown origin) at 1 uM in presence of ATP relative to control; values are per cent of control
[11] = molecular target: Serine/threonine-protein kinase BRSK1 (Homo sapiens) (UniProt Q8TDC3); test: Inhibition of BrSK1 (unknown origin) at 1 uM in presence of ATP relative to control; values are per cent of control
[12] = molecular target: Calcium/calmodulin-dependent protein kinase type IV (Homo sapiens) (UniProt Q16566); test: Inhibition of CAMK4 (unknown origin) at 1 uM in presence of ATP relative to control; values are per cent of control
[13] = molecular target: Homeodomain-interacting protein kinase 1 (Homo sapiens) (UniProt Q86Z02); test: Inhibition of HIPK1 (unknown origin) at 1 uM in presence of ATP relative to control; values are per cent of control
[14] = molecular target: Ephrin type-A receptor 4 (Homo sapiens) (UniProt P54764); test: Inhibition of EphA4 (unknown origin) at 1 uM in presence of ATP relative to control; values are per cent of control
[15] = molecular target: Fibroblast growth factor receptor 4 (Homo sapiens) (UniProt P22455); test: Inhibition of FGFR4 (unknown origin) at 1 uM in presence of ATP relative to control; values are per cent of control
[16] = molecular target: RAF proto-oncogene serine/threonine-protein kinase (Homo sapiens) (UniProt P04049); test: Inhibition of C-RAF (unknown origin) at 1 uM in presence of ATP relative to control; values are per cent of control
Homo sapiens = species on record: Homo sapiens; test: Inhibition of p70S6K (unknown origin) at 1 uM in presence of ATP relative to control; values are per cent of control
[17] = molecular target: Eukaryotic elongation factor 2 kinase (Homo sapiens) (UniProt O00418); test: Inhibition of eEF-2K (unknown origin) at 1 uM in presence of ATP relative to control; values are per cent of control
[18] = molecular target: Insulin-like growth factor 1 receptor (Homo sapiens) (UniProt P08069); test: Inhibition of IGF-1R (unknown origin) at 1 uM in presence of ATP relative to control; values are per cent of control
[19] = molecular target: Glycogen synthase kinase-3 beta (Homo sapiens) (UniProt P49841); test: Inhibition of GSK3beta (unknown origin) at 1 uM in presence of ATP relative to control; values are per cent of control
[20] = molecular target: Casein kinase I isoform gamma-1 (Homo sapiens) (UniProt Q9HCP0); test: Inhibition of CK1gamma1 (unknown origin) at 1 uM in presence of ATP relative to control; values are per cent of control
[21] = molecular target: Platelet-derived growth factor receptor beta (Homo sapiens) (UniProt P09619); test: Inhibition of PDGFRbeta (unknown origin) at 1 uM in presence of ATP relative to control; values are per cent of control
[22] = molecular target: cGMP-dependent protein kinase 1 (Homo sapiens) (UniProt Q13976); test: Inhibition of PRKG1alpha (unknown origin) at 1 uM in presence of ATP relative to control; values are per cent of control
Chain of cGMP-dependent protein kinase 1 (Homo sapiens) (Q13976 whole entry): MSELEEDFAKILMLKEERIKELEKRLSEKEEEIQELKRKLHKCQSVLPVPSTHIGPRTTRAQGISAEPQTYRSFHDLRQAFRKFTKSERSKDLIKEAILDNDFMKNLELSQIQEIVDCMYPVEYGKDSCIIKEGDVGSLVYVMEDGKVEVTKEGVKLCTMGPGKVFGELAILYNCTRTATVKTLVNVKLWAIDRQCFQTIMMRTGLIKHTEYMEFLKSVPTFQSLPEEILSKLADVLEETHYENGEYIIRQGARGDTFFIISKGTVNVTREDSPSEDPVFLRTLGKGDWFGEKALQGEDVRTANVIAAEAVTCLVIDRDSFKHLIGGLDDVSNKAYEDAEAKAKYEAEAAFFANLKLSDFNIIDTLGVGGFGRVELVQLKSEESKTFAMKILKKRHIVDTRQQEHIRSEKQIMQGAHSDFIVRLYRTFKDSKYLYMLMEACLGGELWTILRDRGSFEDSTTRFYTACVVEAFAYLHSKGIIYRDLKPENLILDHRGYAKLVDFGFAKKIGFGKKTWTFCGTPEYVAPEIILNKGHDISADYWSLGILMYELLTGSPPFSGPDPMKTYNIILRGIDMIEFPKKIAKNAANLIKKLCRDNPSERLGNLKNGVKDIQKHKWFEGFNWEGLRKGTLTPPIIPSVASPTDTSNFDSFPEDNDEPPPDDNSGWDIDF

Chain of Misshapen-like kinase 1 (Homo sapiens) (Q8N4C8 whole entry, looked up): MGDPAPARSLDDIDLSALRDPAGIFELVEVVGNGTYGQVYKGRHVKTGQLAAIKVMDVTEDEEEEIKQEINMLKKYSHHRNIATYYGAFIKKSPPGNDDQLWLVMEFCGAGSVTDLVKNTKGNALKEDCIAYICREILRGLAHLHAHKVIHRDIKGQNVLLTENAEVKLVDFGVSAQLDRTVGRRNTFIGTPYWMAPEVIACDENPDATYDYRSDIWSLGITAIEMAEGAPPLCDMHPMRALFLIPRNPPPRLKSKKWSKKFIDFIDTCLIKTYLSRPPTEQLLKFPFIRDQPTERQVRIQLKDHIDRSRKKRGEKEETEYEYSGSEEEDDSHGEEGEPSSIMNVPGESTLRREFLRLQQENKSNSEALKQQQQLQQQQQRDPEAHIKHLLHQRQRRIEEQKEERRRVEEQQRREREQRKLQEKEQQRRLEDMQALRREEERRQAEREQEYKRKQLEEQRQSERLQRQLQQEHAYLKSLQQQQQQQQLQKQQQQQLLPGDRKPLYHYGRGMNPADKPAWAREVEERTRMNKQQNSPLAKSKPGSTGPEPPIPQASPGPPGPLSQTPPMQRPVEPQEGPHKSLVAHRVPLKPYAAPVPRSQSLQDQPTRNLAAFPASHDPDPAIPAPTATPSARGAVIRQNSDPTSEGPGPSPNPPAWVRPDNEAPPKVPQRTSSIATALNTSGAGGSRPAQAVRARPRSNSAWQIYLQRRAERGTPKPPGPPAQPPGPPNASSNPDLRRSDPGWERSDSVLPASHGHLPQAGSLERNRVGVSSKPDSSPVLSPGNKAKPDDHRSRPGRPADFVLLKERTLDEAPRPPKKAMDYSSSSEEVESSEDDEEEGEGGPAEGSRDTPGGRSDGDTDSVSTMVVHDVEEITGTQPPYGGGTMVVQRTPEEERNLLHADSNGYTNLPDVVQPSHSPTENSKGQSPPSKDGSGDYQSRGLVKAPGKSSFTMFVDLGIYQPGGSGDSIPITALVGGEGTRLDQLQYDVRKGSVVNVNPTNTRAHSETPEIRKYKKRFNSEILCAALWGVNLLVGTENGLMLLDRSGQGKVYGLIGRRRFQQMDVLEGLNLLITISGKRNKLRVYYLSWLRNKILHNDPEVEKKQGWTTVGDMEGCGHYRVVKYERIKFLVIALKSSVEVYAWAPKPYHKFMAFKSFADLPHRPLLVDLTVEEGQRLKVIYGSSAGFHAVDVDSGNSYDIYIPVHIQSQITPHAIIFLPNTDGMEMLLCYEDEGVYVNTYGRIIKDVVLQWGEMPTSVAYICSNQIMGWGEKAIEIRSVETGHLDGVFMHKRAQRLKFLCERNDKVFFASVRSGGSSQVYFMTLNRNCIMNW
Chain of Casein kinase I isoform gamma-1 (Homo sapiens) (Q9HCP0 whole entry, looked up, canonical isoform): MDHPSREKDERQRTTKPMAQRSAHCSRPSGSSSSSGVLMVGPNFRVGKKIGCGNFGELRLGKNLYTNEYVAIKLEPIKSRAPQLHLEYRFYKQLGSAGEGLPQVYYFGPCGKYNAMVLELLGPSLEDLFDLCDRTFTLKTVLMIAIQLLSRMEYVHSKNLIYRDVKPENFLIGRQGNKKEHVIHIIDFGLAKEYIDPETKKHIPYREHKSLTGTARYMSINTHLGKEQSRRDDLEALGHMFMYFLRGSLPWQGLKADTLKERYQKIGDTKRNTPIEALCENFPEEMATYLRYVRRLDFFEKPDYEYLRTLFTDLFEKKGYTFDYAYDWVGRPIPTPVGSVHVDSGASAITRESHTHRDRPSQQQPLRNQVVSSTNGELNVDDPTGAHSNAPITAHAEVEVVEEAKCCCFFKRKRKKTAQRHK
Chain of Proto-oncogene tyrosine-protein kinase receptor Ret (Homo sapiens) (P07949 whole entry): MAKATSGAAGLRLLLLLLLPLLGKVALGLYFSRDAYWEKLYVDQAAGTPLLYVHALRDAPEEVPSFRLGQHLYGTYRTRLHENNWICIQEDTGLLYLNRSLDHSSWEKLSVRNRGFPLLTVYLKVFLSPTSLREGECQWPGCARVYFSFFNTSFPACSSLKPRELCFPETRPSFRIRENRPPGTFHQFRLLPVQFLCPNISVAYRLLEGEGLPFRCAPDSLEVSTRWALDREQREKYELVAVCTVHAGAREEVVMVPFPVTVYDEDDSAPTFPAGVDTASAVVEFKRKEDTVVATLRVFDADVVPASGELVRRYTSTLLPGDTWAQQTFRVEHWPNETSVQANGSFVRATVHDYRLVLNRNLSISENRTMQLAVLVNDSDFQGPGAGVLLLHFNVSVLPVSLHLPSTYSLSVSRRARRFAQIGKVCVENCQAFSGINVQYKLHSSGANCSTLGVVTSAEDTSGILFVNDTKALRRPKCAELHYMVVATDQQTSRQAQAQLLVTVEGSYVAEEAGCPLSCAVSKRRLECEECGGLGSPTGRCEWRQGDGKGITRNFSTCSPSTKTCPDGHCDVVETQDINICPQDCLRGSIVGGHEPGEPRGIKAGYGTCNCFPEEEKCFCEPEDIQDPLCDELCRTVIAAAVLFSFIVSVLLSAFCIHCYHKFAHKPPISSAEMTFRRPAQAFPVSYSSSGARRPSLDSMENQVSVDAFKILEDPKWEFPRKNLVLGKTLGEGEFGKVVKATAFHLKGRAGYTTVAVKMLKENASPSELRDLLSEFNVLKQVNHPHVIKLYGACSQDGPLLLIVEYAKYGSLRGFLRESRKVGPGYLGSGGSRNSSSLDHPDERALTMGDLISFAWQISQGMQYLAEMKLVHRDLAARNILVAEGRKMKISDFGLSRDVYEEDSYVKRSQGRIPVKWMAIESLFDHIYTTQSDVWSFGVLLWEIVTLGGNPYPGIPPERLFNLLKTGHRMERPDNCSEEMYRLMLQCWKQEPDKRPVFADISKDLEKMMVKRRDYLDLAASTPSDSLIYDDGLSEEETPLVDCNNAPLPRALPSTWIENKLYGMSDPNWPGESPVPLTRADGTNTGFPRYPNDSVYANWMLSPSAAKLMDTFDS
Chain of Calcium/calmodulin-dependent protein kinase type IV (Homo sapiens) (Q16566 whole entry): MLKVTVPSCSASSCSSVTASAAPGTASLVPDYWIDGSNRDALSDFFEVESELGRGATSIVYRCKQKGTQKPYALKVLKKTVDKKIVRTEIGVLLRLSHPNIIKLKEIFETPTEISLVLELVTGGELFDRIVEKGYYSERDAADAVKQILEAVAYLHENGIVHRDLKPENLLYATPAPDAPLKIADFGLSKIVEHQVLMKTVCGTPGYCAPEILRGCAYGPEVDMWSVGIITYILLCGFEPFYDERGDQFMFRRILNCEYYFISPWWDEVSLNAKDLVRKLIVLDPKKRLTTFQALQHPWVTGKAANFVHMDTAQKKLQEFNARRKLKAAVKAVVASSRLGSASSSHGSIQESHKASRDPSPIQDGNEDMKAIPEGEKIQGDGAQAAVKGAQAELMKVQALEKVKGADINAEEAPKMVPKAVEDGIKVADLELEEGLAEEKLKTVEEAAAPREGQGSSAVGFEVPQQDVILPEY
Chain of Glycogen synthase kinase-3 beta (Homo sapiens) (P49841 whole entry, looked up, canonical isoform): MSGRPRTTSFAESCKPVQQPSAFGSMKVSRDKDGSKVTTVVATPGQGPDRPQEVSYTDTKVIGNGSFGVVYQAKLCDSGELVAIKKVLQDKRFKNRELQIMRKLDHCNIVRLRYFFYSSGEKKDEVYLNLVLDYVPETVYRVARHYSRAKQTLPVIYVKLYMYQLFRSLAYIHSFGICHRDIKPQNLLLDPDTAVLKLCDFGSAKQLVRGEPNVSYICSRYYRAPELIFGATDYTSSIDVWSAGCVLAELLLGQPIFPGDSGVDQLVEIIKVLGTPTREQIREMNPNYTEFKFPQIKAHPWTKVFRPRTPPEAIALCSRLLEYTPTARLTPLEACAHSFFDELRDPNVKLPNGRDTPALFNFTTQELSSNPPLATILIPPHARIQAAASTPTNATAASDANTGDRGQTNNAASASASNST
Chain of Serine/threonine-protein kinase VRK2 (Homo sapiens) (Q86Y07 whole entry): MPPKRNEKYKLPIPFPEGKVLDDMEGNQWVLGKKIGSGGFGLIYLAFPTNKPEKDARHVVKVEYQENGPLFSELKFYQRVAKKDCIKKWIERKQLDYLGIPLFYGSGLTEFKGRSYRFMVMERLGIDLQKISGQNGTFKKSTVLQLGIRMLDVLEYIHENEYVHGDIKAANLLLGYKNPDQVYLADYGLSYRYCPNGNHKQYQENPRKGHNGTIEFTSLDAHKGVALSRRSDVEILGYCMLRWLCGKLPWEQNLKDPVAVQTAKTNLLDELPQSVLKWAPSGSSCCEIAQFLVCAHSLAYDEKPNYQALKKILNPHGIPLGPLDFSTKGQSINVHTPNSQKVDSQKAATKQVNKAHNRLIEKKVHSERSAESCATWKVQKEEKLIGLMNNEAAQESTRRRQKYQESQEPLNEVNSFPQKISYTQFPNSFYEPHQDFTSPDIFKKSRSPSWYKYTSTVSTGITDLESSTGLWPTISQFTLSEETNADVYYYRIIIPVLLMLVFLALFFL

C[C@@H]1CCc2ncc(F)cc2[C@H]2CCCN2c2ccn3ncc(c3n2)C(=O)N1 [SELITRECTINIB]
IC50 [1]: < 2.5 nM
Activity (NIH3T3): Active
inhibition 5637: inactive
inhibition (A101D): inactive
inhibition (SNB-19): inactive
inhibition (SAOS-2): inactive
inhibition (TT): inactive
residual activity [2]: 81%
residual activity [3]: 87.5%
residual activity [4]: 80.5%
residual activity [5]: 110%
residual activity [6]: 98%
residual activity [7]: 117%
residual activity [8]: 99.5%
residual activity [9]: 85.5%
residual activity [10]: 0%
residual activity [11]: 108%
residual activity [12]: 118%
residual activity [13]: 106%
residual activity [14]: 102%
residual activity [15]: 128%
residual activity [16]: 92.5%
residual activity (Homo sapiens): 117%
residual activity [17]: 118%
residual activity [18]: 96%
residual activity [19]: 124%
residual activity [20]: 112%
residual activity [21]: 112%
residual activity [22]: 110%
